In US12269801B2, “Modified amino acids” (SUTRO BIOPHARMA, INC., priority 2012, dated 2025):

Experiments:
[1] = Reactivity of amino acid analogs with DBCO-NH2 (61), absorption at 310 nm; type: physicochemical; settings: 1:1 equivalence; for yield of reaction with compound (61): in six hours; for reaction rate with compound (61): pH 7.4 phosphate buffered saline, compared among analogs
Experimental: DBCO-NH2 (61) was dissolved in pH 7.4 phosphate buffered saline to yield a 500 µM solution. Amino acid analogs (30), (1), and (2) were dissolved in the same buffer to yield 5 mM clear solutions, and then diluted to a concentration of 500 μM using the same buffer. One hundred microliters of each amino acid analog was mixed with 100 μL of compound (61) and vortexed. The absorption of compound (61) was monitored at 310 nm using a NANODROP 1000 UV Spectrometer. Measurements were obtained at 0, 0.5, 2, 6, and 20 hours. The reduction in the absorption of compound (61) is indicative of its reaction with the amino acid analogs.

[2] = system: Y50TAG site in GFP; assay: Cell-free (OCFS) incorporation into GFP at amber codon, fluorescence time course; type: biochemical
From the text: This example describes incorporation of compound (30) into green fluorescent protein. To monitor synthesis of GFP, the DNA encoding turboGFP containing an amber codon (stop codon) before the chromophore was cloned into OCFS expression vector pYD317. The stop codon (TAG) was inserted by overlapping PCR mutagenesis at the nucleotides corresponding to the amino acid tyrosine at the 50th amino acid according to the crystal structure of turboGFP (pdb 2G6X).
[…] OCFS reaction mix was immediately added to microplate for a 30 μL final reaction volume containing 30% S30 extract, 24 μg/mL T7 RNA polymerase, 1 mM L-tyrosine (Sigma, T8566), pre-mix*, 10 μM tRNA, 5 μM pCNFRS D286R, 1 mM compound (30), and 3 nM turboGFP plasmid (Evrogen, Russia, subcloned into a PYD317 vector) in DEPC-treated water (G Biosciences, 786-109). A positive control reaction using turboGFP without the stop codon was used to ensure that the reactions proceeded with rates similar previously observed, while reactions containing turboGFP Y50TAG were also run without tRNA to ensure no fluorescence was detected (negative control) in the absence of the system responsible for incorporation of pAMF. Incorporation of pAMF into GFP achieves relatively high yields of protein in a site-specific manner.

[3] = system: trastuzumab heavy chain; assay: Cell-free incorporation into IgG at heavy chain amber codon, autoradiography; type: biochemical; settings: 1 mM compound (30), TAG at serine position 136 (EU index)
Experimental: TAG codon was inserted by overlapping PCR mutagenesis at the nucleotides corresponding to the amino acid serine at the position 136 by EU index in CHI domain.
(§1) Cell-free extracts were thawed to room temperature and incubated with 50 μM iodoacetamide for 30 min. Cell-free reactions were run at 30 C for up to 10 h containing 30% (v/v) iodoacetamide-treated extract with 8 mM magnesium glutamate, 10 mM ammonium glutamate, 130 mM potassium glutamate, 35 mM sodium pyruvate, 1.2 mM AMP, 0.86 mM each of GMP, UMP, and CMP, 2 mM amino acids for all 18 amino acids except tyrosine and phenylalanine which were added at 0.5 mM, 4 mM sodium oxalate, 1 mM putrescine, 1.5 mM spermidine, 15 mM potassium phosphate, 100 nM T7 RNAP, 1.3 μM E. coli DsbC, 5 μM yeast PDI, 2 mM oxidized (GSSG) glutathione, 15 μM tRNA, 1 μM tRNA synthetase, and 1 mM compound (30). The concentrations of heavy chain TAG variant plasmid and wild type light chain plasmid were 7.5 μg/mL and 2.5 μg/mL respectively. […]
For non reducing gel, 4 μL of sample, 8 μL of DI H2O and 4 μL of 4×LDS buffer (Invitrogen, Carlsbad, CA) were mixed before being loaded on gel. […] Samples were analyzed by 4˜12% Bis-Tris SDS-PAGE gels (Invitrogen, Carlsbad, CA) according to the manufacturer's recommendations. Gels were dried and analyzed by autoradiography using a Storm 840 PhosphoImager after about 16 hours exposure.

[4] = system: human GMCSF; assay: Cell-free incorporation into GM-CSF at amber codon, autoradiography; type: biochemical; settings: 1 mM compound (30), TAG at serine position 6
Experimental: DNA encoding human GMCSF with amber codon was cloned into expression vector pYD317. The TAG codon was inserted by overlapping PCR mutagenesis at the nucleotides corresponding to the amino acid serine at the position 6.
as §1, with “extracts containing tRNA CUA” for “extracts”, “DsbC,” for “DsbC, 5 μM yeast PDI,”, “glutathione,” for “glutathione, 15 μM tRNA,”, “GMCSF” for “heavy chain”, “was 5 μg/mL.” for “and wild type light chain plasmid were 7.5 μg/mL and 2.5 μg/mL respectively.”
For reducing gel, 4 μL of sample, 1 μL of 1 M DTT, 7 μL of DI H2O and 4 μL of 4×LDS buffer (Invitrogen, Carlsbad, CA) were mixed and heated in hot blot at 70 C for 5 minutes. Samples were analyzed by 4˜12% Bis-Tris SDS-PAGE gels (Invitrogen, Carlsbad, CA) according to the manufacturer's recommendations. Gels were dried and analyzed by autoradiography using a Storm 840 PhosphoImager after about 16 hours exposure.

[5] = Reactivity of azido amino acids with DBCO analog (60), loss of DBCO absorbance at 310 nm; type: physicochemical; settings: reaction with compound (60); for second-order rate constant: PBS buffer, 25° C., from plot of kobs vs. [Azide]; for rate constant fold higher than compound (50): relative to compound (50)
Experimental: DBCO analog (60), was dissolved in acetonitrile to a concentration of 60 μM. Amino acid analogs (30), (40), and (50) were serially diluted in PBS buffer in the wells of a 96-well microtiter plate to a volume of 180 μL. 20 μL of DBCO analog stock solution was added to each well and the kinetics of the loss of DBCO to form the addition adduct was monitored at 310 nm by absorbance using a SpectraMax plate reader at 25° C. A schematic of the reaction of compounds (30), (40), and (50) with compound (60) is shown as FIG. 1. The kinetics accurately fit a first order decay with […], where kobs is the pseudo first order rate constant with units of sec^−1 under conditions where [Azide compound]>>[DBCO]. A plot of kobs vs. [Azide] yields the second-order rate constant (units of M^−1 sec^−1) for each amino acid, a measure of the intrinsic chemical reactivity of each amino acid.

SMILES: [N-]=[N+]=NCc1ccc(CC(N)C(=O)O)nc1 (stereo not drawn) [compound (1), 2-Amino-3-(5-azidomethyl-pyridin-2-yl)-propionic Acid]
- yield of reaction with compound (61) [1]: almost quantitative yield
- reaction rate with compound (61) [1]: comparable rates

SMILES: [N-]=[N+]=NCc1ccc(C[C@H](N)C(=O)O)cn1 [compound (2)]
- reaction rate with compound (61) [1]: two- to four-fold slower

SMILES: [N-]=[N+]=NCc1ccc(C[C@H](N)C(=O)O)cc1 [compound (30)]
- yield of reaction with compound (61) [1]: almost quantitative yield
- reaction rate with compound (61) [1]: comparable rates
- RFU ([2]; at 200 minutes): approximately 130,000 RFU
- RFU ([2]; at 400 minutes): approximately 160,000 RFU
- RFU ([2]; at 600 minutes): approximately 170,000 RFU
- incorporation into IgG by autoradiography [3]: intact full length IgG containing compound (30) was made
- incorporation into GMCSF by autoradiography [4]: intact full length GMCSF containing compound (30) was made
- second-order rate constant [5]: 1.4 M⁻¹ s⁻¹
- rate constant fold higher than compound (50) [5]: approximately 7 fold

SMILES: [N-]=[N+]=NCCCC(=O)NCCCC[C@H](N)C(=O)O [compound (40)]
- second-order rate constant [5]: 1.4 M⁻¹ s⁻¹
- rate constant fold higher than compound (50) [5]: approximately 7 fold

SMILES: [N-]=[N+]=Nc1ccc(C[C@H](N)C(=O)O)cc1 [compound (50), p-azido-phenylalanine, reference compound]
- second-order rate constant [5]: 0.2 M⁻¹ s⁻¹
